How the values were obtained:
LNCAP cells = experiment: Inhibition of R1881 stimulated cell growth in LNCAP cells (CellTiter-Glo); format: cell-based; settings: Homo sapiens, 144 h, 10% CSS, 6 days
Description: (§1) LNCAP and VCAP cells were seeded in 96-well plates at 5000 (LNCAP) and 6000 (VCAP) cells/well in phenol red-free RPM11640 supplemented with 10% charcoal stripped serum (CSS), and then incubated at 37° C. overnight. The following day, the test compound was administered to the cells by using 1000× compound stock solution prepared in DMSO at various concentrations. 1000× compound stock solution was first diluted 1:100 in phenol red-free RPM11640 supplemented with 10% CSS and 1 nM R1881 to prepare the 10× treatment solutions containing serial dilutions of AC176 together in the presence of 1 nM, and then 10 uL compound medium was added to each well in the cell plates. After administration of the compound, the cells were then incubated at 37° C. for 6 days. Upon completion, the plates were equilibrated at room temperature for approximately 10 minutes. 100 ul of CellTiter-Glo® 3D Reagent (Promega) was added to each well. The plates were then incubated at room temperature for 30 minutes and luminescence was recorded by EnSpire plate reader (PerkinElmer). The results are shown in Table 5, which summarizes the growth inhibition (G150) in LNCAP and VCAP cells with exemplary compounds of the present disclosure.

VCAP cells = experiment: Inhibition of R1881 stimulated cell growth in VCAP cells (CellTiter-Glo); format: cell-based; settings: Homo sapiens, 144 h, 10% CSS, 6 days
Description: as §1

| SMILES | GI50 (LNCAP cells) | GI50 (VCAP cells) |
| --- | --- | --- |
| Cn1ccc(=O)c2c(O[C@H]3C(C)(C)[C@H](NC(=O)c4ccc(N5CCC(CN6CCN(c7ccc8c(c7)CN([C@H]7CCC(=O)NC7=O)C8=O)CC6)CC5)cc4)C3(C)C)ccc(C#N)c21 [Compound 39, N-((1,3-trans)-3-((8-cyano-1-methyl-4-oxo-1,4-dihydroquinolin-5-yl)oxy)-2,2,4,4-tetramethylcyclobutyl)-4-(4-((4-(2-((S)-2,6-dioxopiperidin-3-yl)-1-oxoisoindolin-5-yl)piperazin-1-yl)methyl)piperidin-1-yl)benzamide] | ≤ 50 nM | ≤ 50 nM |
| CC1(C)C(NC(=O)c2ccc(N3CCC(CN4CCN(c5ccc6c(c5)CN([C@H]5CCC(=O)NC5=O)C6=O)CC4)CC3)cc2)C(C)(C)C1Oc1ccc(C#N)c2[nH]ccc(=O)c12 (stereo partly drawn) [Compound 30, N-((1,3-trans)-3-((8-cyano-4-oxo-1,4-dihydroquinolin-5-yl)oxy)-2,2,4,4-tetramethylcyclobutyl)-4-(4-((4-(2-((S)-2,6-dioxopiperidin-3-yl)-1-oxoisoindolin-5-yl)piperazin-1-yl)methyl)piperidin-1-yl)benzamide] | ≤ 50 nM | ≤ 50 nM |
| CC1(C)[C@H](NC(=O)c2ccc(N3CCC(CN4CCN(c5ccc6c(c5)CN([C@H]5CCC(=O)NC5=O)C6=O)CC4)CC3)c(F)c2)C(C)(C)[C@H]1Oc1ccc(C#N)c2[nH]c(=O)ccc12 [Compound 16, N-((1,3-trans)-3-((8-cyano-2-oxo-1,2-dihydroquinolin-5-yl)oxy)-2,2,4,4-tetramethylcyclobutyl)-4-(4-((4-(2-((S)-2,6-dioxopiperidin-3-yl)-1-oxoisoindolin-5-yl)piperazin-1-yl)methyl)piperidin-1-yl)-3-fluorobenzamide] | ≤ 50 nM | ≤ 50 nM |
| CC1(C)C(NC(=O)c2ccc(N3CCC(CN4CCN(c5ccc(C(=O)N[C@H]6CCC(=O)NC6=O)nc5)CC4)CC3)cc2)C(C)(C)C1Oc1ccc(C#N)c2[nH]c(=O)ccc12 (stereo partly drawn) [Compound 43, 5-(4-((1-(4-(((1,3-trans)-3-((8-cyano-2-oxo-1,2-dihydroquinolin-5-yl)oxy)-2,2,4,4-tetramethylcyclobutyl)carbamoyl)phenyl)piperidin-4-yl)methyl)piperazin-1-yl)-N-((S)-2,6-dioxopiperidin-3-yl)picolinamide] | > 500 nM | 50 to 500 nM |
| CC1(C)C(NC(=O)c2ccc(N3CCC(CN4CCN(c5ccc6c(=O)n(C7CCC(=O)NC7=O)ncc6c5)CC4)CC3)cc2)C(C)(C)C1Oc1ccc(C#N)c2[nH]c(=O)ccc12 (stereo not drawn) [Compound 49, N-((1,3-trans)-3-((8-cyano-2-oxo-1,2-dihydroquinolin-5-yl)oxy)-2,2,4,4-tetramethylcyclobutyl)-4-(4-((4-(2-(2,6-dioxopiperidin-3-yl)-1-oxo-1,2-dihydrophthalazin-6-yl)piperazin-1-yl)methyl)piperidin-1-yl)benzamide] | > 500 nM | 50 to 500 nM |
| CC1(C)C(NC(=O)c2ccc(N3CCC(CN4CCN(c5ccc6c(c5)CN([C@H]5CCC(=O)NC5=O)C6=O)CC4)CC3)cc2)C(C)(C)C1Oc1ccc(C#N)c2[nH]c(=O)ccc12 (stereo partly drawn) [Compound 18, N-((1,3-trans)-3-((8-cyano-2-oxo-1,2-dihydroquinolin-5-yl)oxy)-2,2,4,4-tetramethylcyclobutyl)-4-(4-((4-(2-((S)-2,6-dioxopiperidin-3-yl)-1-oxoisoindolin-5-yl)piperazin-1-yl)methyl)piperidin-1-yl)benzamide] | ≤ 50 nM | ≤ 50 nM |
| Cn1c(=O)ccc2c(OC3C(C)(C)C(NC(=O)c4ccc(N5CCC(CN6CCN(c7ccc8c(c7)CN([C@H]7CCC(=O)NC7=O)C8=O)CC6)CC5)cc4)C3(C)C)ccc(C#N)c21 (stereo partly shown) [Compound 34] | ≤ 50 nM | ≤ 50 nM |
| CC1(C)C(NC(=O)c2ccc(N3CCC(CN4CCN(c5ccc6c(c5)C(=O)N(C5CCC(=O)NC5=O)C6=O)CC4)CC3)cc2)C(C)(C)C1Oc1ccc(C#N)c2[nH]c(=O)ccc12 (stereo not drawn) [Compound 20, N-((1,3-trans)-3-((8-cyano-2-oxo-1,2-dihydroquinolin-5-yl)oxy)-2,2,4,4-tetramethylcyclobutyl)-4-(4-((4-(2-(2,6-dioxopiperidin-3-yl)-1,3-dioxoisoindolin-5-yl)piperazin-1-yl)methyl)piperidin-1-yl)benzamide] | > 500 nM | 50 to 500 nM |

From patent US20240190842A1, “SUBSTITUTED QUINOLINONE-8-CARBONITRILE DERIVATIVES HAVING ANDROGEN DEGRADATION ACTIVITY AND USES THEREOF” (Accutar Biotechnology Inc., priority 2022, published 2024)
